Measurements as given in patent publication US4448785A, “N-Unsaturated fatty acid amides of tryptophan ester homologues and anti-cholesteric use thereof” (Sandoz, Inc., priority 1982, dated 1984).
“And” between values parts separate entries of the source, which are not always exact repeats. Equal entries are not always repeated.

Tests used:
Fu5AH rat hepatoma cells = assay: Inhibition of cholesterol ester accumulation in Fu5AH cells; assay type: cell-based; design: Visual (in comparison to results with compound of Example 2a) / % Inhibition of cholesterol ester accumulation: unit of the concentration uncertain; settings: for inhibition at 10 µg/mL: Rattus norvegicus
Text: For testing a 75 cm^2 flask with a near confluent cell growth is selected. The cells are removed from the flask surface by mild enzymatic treatment with pronase. After centrifugation and decanting the enzyme solution, the cell pellet is resuspended in an appropriate volume of media for seeding the desired number of 60 mm tissue culture dishes. Five (5) ml of the diluted cell suspension are pipetted into each dish. After seeding, the dishes are labelled with the cell type, date and flask number of origin and incubated at 37° C. in approximately 5% CO2 atmosphere in a high humidity incubator. When the cultures are confluent, the actual drug testing is begun. Test compounds are routinely solubilized in 100% ethanol. An equivalent amount of ethanol is added to control groups as well. The tissue culture dishes are randomly divided into groups. To one group, hyperlipemic rabbit serum (HRS) is added at 5% by volume (control). […] The dishes are returned to the incubator for an additional 24 hours. All operations through to the final incubation are performed using sterile technique in a laminar flow hood. After the incubation period, the dishes are microscopically observed with the Zeiss Axiomat with phase contrast optics and the conditions of the cultures are recorded; especially in regard to the size, number and configuration of cytoplasmic inclusions and to cellular morphology. The media is removed from the cultures and 0.9% sodium chloride solution is added. The cells are removed from the flasks with the aid of a rubber policeman and transferred to a conical graduated centrifuge tube. The cells are washed three times by suspending in an isotonic salt solution, centrifuging at 800× g for 10 minutes and aspirating the supernatant fluid.
(§1) An appropriate volume of isopropyl alcohol (about 1 ml/mg protein) is then added to the cell pellet and the sample sonicated with a micro probe (140×3 mm) for 10 seconds with a "LO" setting of 50 on a Bronwell Biosonik IV. After centrifugation for 15 minutes at 800× g, the clear supernatant is decanted and an aliquot taken for cholesterol analysis.
An aliquot of 0.4 ml of free reagent (Reagent A, Table 1 below) is added to a 10×75 mm disposable glass test tube to which 20 μl of the isopropyl alcoholic solution is added and mixed. After standing at room temperature for approximately 5 minutes, 0.8 ml of 0.5 N sodium hydroxide (Reagent C, Table 1) is added and mixed. The fluorescence is measured with an Aminco-Bowman spectrophotofluorometer with an excitation wavelength of 325 nm and emission wavelength of 415 nm. A 1 cm light path cuvette is used with a xenon lamp, an IP28 photomultiplier tube and 2 mm slits.
Total cholesterol: The same procedure described above for free cholesterol is followed for total cholesterol except that the total reagent (Reagent B, Table 1) is used instead of the free reagent and the samples are incubated for 20 minutes at 37° C. before the addition of the 0.5 N sodium hydroxide solution (Reagent C, Table 1).
The amount of cholesterol ester is found by subtracting the amount of free cholesterol from the total cholesterol content of the cells determined by the assay.

[1] = tested on: monkey aortic smooth muscle cells; assay: Cell culture cholesterol ester test, monkey aortic smooth muscle cells (Table 2); assay type: cell-based, Rhesus monkey; settings: 5% HRS
Text: The compounds of formula I of this invention are useful as pharmaceutical agents in animals. In particular, the compounds of the formula I are useful in controlling the cholesterol ester content of mammalian arterial walls and are therefore particularly indicated for use as anti-atherosclerotic agents, ie. agents useful in the prophylactic treatment of atherosclerosis and in the controlling of atherosclerotic conditions due to cholesterol ester accumulation in the arterial walls. Such ability of the compounds of the formula I is indicated e.g., by known test procedures in which the total cholesterol ester content of cultured cells is shown to be reduced by a test compound, as compared to untreated cells, and carried out, for example, by the following procedures:
Rhesus monkey smooth muscle cells (from the arterial, eg aorta wall) obtained by the method of K. Fisher-Dzoga et al (Experimental and Molecular Pathology 18, 162-176 (1973)) are routinely grown in 75 cm^2 tissue culture flasks using Minimum Essential Medium (Eagle) supplemented with 10% fetal bovine serum. For testing a 75 cm^2 flask with a near confluent cell growth is selected. The cells are removed from the flask surface by mild enzymatic treatment with pronase. After centrifugation and decanting the enzyme solution, the cell pellet is resuspended in an appropriate volume of media for seeding the desired number of 60 mm tissue culture dishes. Five (5) ml of the diluted cell suspension are pipetted into each dish. After seeding, the dishes are labelled with the cell type, date and flask number of origin and incubated at 37° C. in approximately 5% CO2 atmosphere in a high humidity incubator. When the cultures are confluent, the actual drug testing is begun. Test compounds are routinely solubilized in 100% ethanol. An equivalent amount of ethanol is added to control groups as well. The tissue culture dishes are randomly divided into groups. To one group, hyperlipemic rabbit serum (HRS) is added at 5% by volume (control). To the remaining groups, 5% HRS and 1 mg per 100 ml of media of the test compound are added. The dishes are returned to the incubator for an additional 24 hours. All operations through to the final incubation are performed using sterile technique in a laminar flow hood. After the incubation period, the dishes are microscopically observed with the Zeiss Axiomat with phase contrast optics and the conditions of the cultures are recorded; especially in regard to the size, number and configuration of cytoplasmic inclusions and to cellular morphology. The media is removed from the cultures and 0.9% sodium chloride solution is added. The cells are removed from the flasks with the aid of a rubber policeman and transferred to a conical graduated centrifuge tube. The cells are washed three times by suspending in an isotonic salt solution, centrifuging at 800× g for 10 minutes and aspirating the supernatant fluid.
as §1
The residue is dissolved in 0.1 N sodium hydroxide and an aliquot taken for protein determination by the method of Lowry, et al. (J. Biol. Chem. 193, 265; 1951). […]

[2] = tested on: serum cholesterol and cholesterol ester levels; assay: Oral administration to rabbits with high cholesterol diet, serum cholesterol and arterial plaques; assay type: in vivo; settings: oral 200 mg/kg per day for 9 weeks, compared to controls
cholesterol absorption = assay: Zilversmit test, cholesterol absorption in the cholesterol fed rabbit; assay type: in vivo, Male New Zealand rabbits; settings: three days, n = 4
Method: The Zilversmit test is carried out as follows:
Cholesterol-1-2-^3 H and cholesterol-4-^14 C were obtained from New England Nuclear. They were purified by high pressure liquid chromatography (Beckman Model 332) using a reverse phase ultrasphere O.D.S. 25 cm×4.5 mm I.D. column with the following solvent system:
The flow rate was 1 ml/min. Detection was made at 206 nm using a Model 155-40 UV-Vis detector (Beckman). The radioactive cholesterol solution in benzene was evaporated to dryness, taken up in isopropyl alcohol and injected into the HPLC in five 20 μl aliguots. Cholesterol fractions were collected, pooled and evaporated to dryness. The purified fraction was rechromatographed under the same conditions to confirm purity.
The HPLC-purified cholesterol-1-2-^3 H was dissolved in corn oil (M.C.B.U.S.P.). The corn oil solution was added to 6.8% skim milk in a ratio of 1:4. This mixture was homogenized by sonicating with a Bronwell Biosonik IV sonicator using a microprobe at a "Lo" setting of 50 until a homogenous suspension was formed. […]
The radioactivity was determined by liquid scintillation counting in either a Packard 3320 Liquid Scintillation Spectrometer or a Beckman Model LS8000. […]
The combined efficiency of the oxidizer and liquid scintillation counter was determined for each isotope from standards of known specific activity. […]

[3] = Dose 10 (unit uncertain) as printed
[4] = Dose 10 as printed, Control = 0.17
[5] = 1 mg test compound per 100 ml of media, 24 hours, listed as A

In the case of `CCCCC/C=C\C/C=C\CCCCCCCC(=O)NC(Cc1c[nH]c2ccccc12)C(=O)OCCCCCCCC` (centres unmarked) [Example 4c], the “Visual (in comparison to results with compound of Example 2a)” value (“Visual” for short) (Fu5AH rat hepatoma cells; Dose 5 (unit uncertain) as printed) is reported as “Weaker” and the F/T (Fu5AH rat hepatoma cells; Dose 5 as printed, Control = 0.19) is reported as 0.22.

With `CCCCCCCC/C=C\CCCCCCCC(=O)NC(Cc1c[nH]c2ccc(F)cc12)C(=O)OCC` (centres unmarked) [Example 3e, 2-(1-oxo-9-octadecenylamino)-3-(1H-5 fluoroindolyl)-propanoic acid, ethyl ester] the “Visual” value (Fu5AH rat hepatoma cells; [3]) was “About same” and the inhibition at 10 µg/mL (Fu5AH rat hepatoma cells; Table 6) was 39%.

In the case of `CCCCCCCC/C=C\CCCCCCCC(=O)NC(Cc1cn(C)c2ccccc12)C(=O)OCC` (centres unmarked) [Example 3a, 2-(1-oxo-9-octadecenylamino)-3-(1-methylindolyl)-propanoic acid, ethyl ester], the F/T (Fu5AH rat hepatoma cells; [4]) is reported as 0.52.

For `CCCCC/C=C\C/C=C\CCCCCCCC(=O)NC(Cc1c[nH]c2ccccc12)C(=O)OCc1ccccc1` (centres unmarked) [Example 4d], the “Visual” value (Fu5AH rat hepatoma cells; [3]) was “About same”.

In the case of `CCCCCCCC/C=C\CCCCCCCC(=O)NC(Cc1c[nH]c2ccccc12)C(=O)OCC` (single isomer, unassigned) [Example 2a, α-[(1-oxo-9-octadecenylamino)]-1H-indole-3-propanoic acid, ethyl ester (cis isomer)], the “Cholesterol Free” value [1, 5] is reported as 50.4 μg/mg cell protein and 54.4 μg/mg cell protein, the “Cholesterol Total” value [1, 5] is reported as 57.4 μg/mg cell protein and 60.3 μg/mg cell protein and the “Cholesterol Ester Amount” value ([1]; 1 mg test compound per 100 ml of media, 24 hours, single culture, controls 23.1 and 21.4, listed as A) is reported as 7.0 μg/mg cell protein and 5.9 μg/mg cell protein. The “Cholesterol Ester Percent from control” value ([1]; decrease, significant at P less than 0.01, 1 mg per 100 ml of media) was 71.0%, the “Cholesterol Ester mean” value ([1]; mean of two cultures, 1 mg per 100 ml of media, control mean 22.3) was 6.5 μg/mg cell protein and the arterial wall plaques [2] was “lessened formation or absence of arterial wall plaques”. For the same compound, the “cholesterol and cholesterol ester serum levels” value [2] was “reduction in cholesterol and cholesterol ester serum levels”, the “Percent Cholesterol Absorption” value (cholesterol absorption; 200 mg/kg by gavage, ± S.E.M., control 43.0 ± 2.03) was 20.0 ± 1.43% and the “Percent Cholesterol Absorption” value (cholesterol absorption; 500 mg/kg by gavage, Mean ± S.E.M., control 41.0 ± 3.3) was 11.2 ± 1.1%. The “Cholesterol Free” value (Fu5AH rat hepatoma cells; 10 μg/ml, 5% HRS, Mean ± SEM, p < .01 vs Hyperlipemic Control 40.7 ± 0.6) was 76.8 ± 6.5 μg/mg Cell Protein, the “Cholesterol Ester” value (Fu5AH rat hepatoma cells; 10 μg/ml, 5% HRS, Mean ± SEM, p < .01 vs Hyperlipemic Control 152.5 ± 2.3) was 40.6 ± 1.3 μg/mg Cell Protein and the “Cholesterol Total” value (Fu5AH rat hepatoma cells; 10 μg/ml, 5% HRS, Mean ± SEM, p < .01 vs Hyperlipemic Control 193.0 ± 2.9) was 117.4 ± 5.2 μg/mg Cell Protein. The “% inh (cholesterol ester accumulation)” value (Fu5AH rat hepatoma cells; 10 μg/ml, Table 5) was 73%, the “inhibition of cholesterol accumulation by cells” value (Fu5AH rat hepatoma cells; Fu5AH cells) was “marked inhibition of cholesterol accumulation” and the F/T (Fu5AH rat hepatoma cells; calculated from Table 5 (10 μg/ml), hyperlipemic control = 0.21) was 0.65.

For `CCCCC/C=C\C/C=C\CCCCCCCC(=O)NC(Cc1c[nH]c2ccccc12)C(=O)OCC` (stereo not drawn) [Example 1, α-[(1-Oxo-9,12-oxtadecadienylamino)]1H-Indole-3-Propanoic acid, Ethyl Ester(cis, cis isomer)], the “Visual” value (Fu5AH rat hepatoma cells; [3]) was “About same”, the “% Inhibition of cholesterol ester accumulation” value (Fu5AH rat hepatoma cells; Dose 10 (unit uncertain) as printed, Table 6) was 59% and the inhibition at 10 µg/mL (Fu5AH rat hepatoma cells; Table 6) was 69%.

For `CCCCCCCC/C=C\CCCCCCCC(=O)NC(Cc1c[nH]c2ccc(OC)cc12)C(=O)OCC` (centres unmarked) [Example 3b, 2-(1-oxo-9-octadecenylamino)-3-(1H-5-methoxyindolyl)-propanoic acid, ethyl ester], the “Visual” value (Fu5AH rat hepatoma cells; [3]) was “About same” and the F/T (Fu5AH rat hepatoma cells; [4]) was 0.45.
